From ChEMBL document CHEMBL1130544, “Catalysis of the Kemp elimination by antibodies elicited against a cationic hapten” (Bioorg Med Chem Lett, 1997)

Legend:
Type in all cases: ADME
[1] = Kinetic parameter for antibody-catalyzed Kemp elimination, at pH 7.1, 30C, using 5% acetonitrile and 4B2 as catalyst was expressed as KM
[2] = Kinetic parameter for antibody-catalyzed Kemp elimination, at pH 7.1, 30C, using 10% acetonitrile and 4B2 as catalyst was expressed as Kcat/KM
[3] = Kinetic parameter for antibody-catalyzed Kemp elimination, at pH 7.1, 30C, using 5% acetonitrile and 4B2 as catalyst was expressed as Kcat/KM
[4] = Rate constant at 30 degree C in phosphate buffer pH 7.1, 0.5 % acetonitrile was expressed as Kcat/KM
[5] = Kinetic parameter for antibody-catalyzed Kemp elimination, at pH 7.1, 30C, using 1% acetonitrile and 4B2 as catalyst was expressed as Kcat/Kuncat
[6] = Kinetic parameter for antibody-catalyzed Kemp elimination, at pH 7.1, 30C, using 5% acetonitrile and 4B2 as catalyst was expressed as Kcat/Kuncat
[7] = Kinetic parameter for antibody-catalyzed Kemp elimination, at pH 7.1, 30C, using 1% acetonitrile and 4B2 as catalyst was expressed as Kcat
[8] = Kinetic parameter for antibody-catalyzed Kemp elimination, at pH 7.1, 30C, using 5% acetonitrile and 4B2 as catalyst was expressed as Kcat
[9] = Kinetic parameter for antibody-catalyzed Kemp elimination, at pH 7.1, 30C, using 0.25% acetonitrile and 4B2 as catalyst was expressed as Kcat/KM
[10] = Kinetic parameter for antibody-catalyzed Kemp elimination, at pH 7.1, 30C, using 1% acetonitrile and 4B2 as catalyst was expressed as Kcat/KM
[11] = Kinetic parameter for antibody-catalyzed Kemp elimination, at pH 7.1, 30C, using 1% acetonitrile and 6C2 as catalyst was expressed as Kcat/KM
[12] = Rate constant ratio at 30 degree C in phosphate buffer pH 7.1, 0.5 % acetonitrile
[13] = Rate constant with triethylamine at 30 degree C in 0.1 M potassium chloride was expressed as Kamine
[14] = Kinetic parameter for antibody-catalyzed Kemp elimination, at pH 7.1, 30C, using 1% acetonitrile and 4B2 as catalyst was expressed as KM

Km [1]	k cat/Km [2]	k cat/Km [3]	k cat/Km [4]	k cat/Kuncat [5]	k cat/Kuncat [6]	k cat [7]	k cat [8]	k cat/Km [9]	k cat/Km [10]	k cat/Km [11]	Ratio [12]	K amine [13]	Km [14]	SMILES
2100 µM	5.9 M⁻¹ s⁻¹	10.1 M⁻¹ s⁻¹	39 M⁻¹ s⁻¹	18000	6300	0.035 s⁻¹	0.022 s⁻¹	53 M⁻¹ s⁻¹	29.1 M⁻¹ s⁻¹	1.4 M⁻¹ s⁻¹	48	0.82 M⁻¹ s⁻¹	1200 µM	O=[N+]([O-])c1ccc2oncc2c1
–	–	–	6 M⁻¹ s⁻¹	–	–	–	–	–	–	–	38	0.16 M⁻¹ s⁻¹	–	O=[N+]([O-])c1ccc2cnoc2c1
–	–	–	0.6 M⁻¹ s⁻¹	–	–	–	–	–	–	–	32	0.0185 M⁻¹ s⁻¹	–	c1ccc2oncc2c1 [BENZO[D]ISOXAZOLE]
